Measured values as given in patent US20090028925A1, “Novel Phosphinic Acid-Containing Thyromimetics” (priority 2005, published 2009).

Assays:
[1] = target: T1, human thyroid hormone receptors TRβ1 (Homo sapiens, UniProt P10828); test: Receptor binding to TRβ1 (gel filtration and scintillation proximity assay, labeled T3); conditions: SPA data; read-out: Ki TRβ
T1 construct: made in house; host or cells: Sf9 insect cells (baculovirus)
T1 sequence (P10828 1-461): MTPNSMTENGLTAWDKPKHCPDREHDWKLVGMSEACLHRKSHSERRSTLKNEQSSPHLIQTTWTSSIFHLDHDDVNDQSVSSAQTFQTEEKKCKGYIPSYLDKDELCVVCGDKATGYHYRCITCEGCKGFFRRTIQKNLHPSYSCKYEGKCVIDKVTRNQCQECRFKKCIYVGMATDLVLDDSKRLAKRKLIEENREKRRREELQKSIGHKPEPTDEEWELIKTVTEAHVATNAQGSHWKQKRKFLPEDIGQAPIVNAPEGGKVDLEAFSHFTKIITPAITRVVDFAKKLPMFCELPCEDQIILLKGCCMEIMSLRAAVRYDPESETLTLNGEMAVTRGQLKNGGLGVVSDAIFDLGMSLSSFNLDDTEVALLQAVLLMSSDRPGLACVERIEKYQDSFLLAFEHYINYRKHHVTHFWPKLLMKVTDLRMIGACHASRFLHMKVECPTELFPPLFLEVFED
T1 sequence (P19793 1-462 partner): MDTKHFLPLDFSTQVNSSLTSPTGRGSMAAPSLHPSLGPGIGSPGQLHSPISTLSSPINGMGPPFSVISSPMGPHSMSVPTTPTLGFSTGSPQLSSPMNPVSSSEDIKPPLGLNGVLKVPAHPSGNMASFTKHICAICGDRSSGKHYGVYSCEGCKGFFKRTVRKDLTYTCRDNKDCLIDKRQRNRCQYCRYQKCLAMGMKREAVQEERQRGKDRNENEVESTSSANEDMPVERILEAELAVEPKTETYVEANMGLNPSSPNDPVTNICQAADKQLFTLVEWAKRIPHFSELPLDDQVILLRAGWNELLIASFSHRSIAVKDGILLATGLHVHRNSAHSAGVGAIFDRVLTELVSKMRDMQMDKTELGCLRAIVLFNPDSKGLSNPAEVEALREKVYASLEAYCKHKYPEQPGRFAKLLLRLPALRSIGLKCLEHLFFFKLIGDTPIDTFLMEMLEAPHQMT

[2] = test system: liver mitochondrial glycerol phosphate dehydrogenase (mGPDH) activity; test: Subacute study in normal rats, continuous infusion: liver mGPDH activity; type: in vivo, rats (Sprague-Dawley); conditions: continuous infusion 1 mg/kg/day
Source text: Efficacy endpoints include serum cholesterol, liver mitochondrial glycerol phosphate dehydrogenase (mGPDH) activity and the expression of relevant liver genes (e.g., the LDL-receptor, apoB, cpt-1, spot14 and apoAI). Safety parameters include heart weight, heart rate, heart mGPDH activity, the expression and key genes involved in cardiac structure and function (e.g., Serca2, HCN2, Kv1.5, MHCα, MHCβ, Alpha1c), and standard plasma chemistry analysis (liver enzymes, electrolytes, creatinine). Endocrine effects are monitored by analysis of serum thyroid stimulating hormone (TSH). [Taylor et al., Mol Pharmacol 52(3): 542-7 (1997); Weitzel et al., Eur J Biochem 268(14):4095-4103 (2001)]
(§1) Methods: mGPDH activity was analyzed in isolated mitochondria using 2-(4-iodophenyl)-3-(4-nitrophenyl)-5-phenyl tetrazolium chloride as the terminal electron acceptor (Gardner R S, Analytical Biochemistry 59:272 (1974)). Commercially available GPDH was used in each assay as a standard (Sigma, St. Louis, Mo.). Changes in levels of mRNA for liver and heart genes are analyzed using reverse transcriptase followed by real-time PCR analysis. The analysis is performed using an iCycler instrument (Biorad) and appropriate primers by means of standard methodology [e.g., Schwab D A et al. (2000) Life Sciences 66: 1683-94]. The amounts of mRNA are normalized to an internal control, typically, cyclophilin. Serum TSH is measured using an enzyme immunoassay (EIA) kit designed for rat TSH (Amersham Pharmacia Biotech, Arlington Heights, Ill.).
Normal rats (Sprague-Dawley) were maintained on a standard diet. […] The compounds were brought up to an appropriate volume using PBS and BSA to maintain solubility within the pump. The compounds were chemically stable in the excipient at 37° C. for 7 days.
Values are expressed as percent of control. (Table 4)

[3] = test system: liver triglycerides; test: Hepatic triglyceride content in normal rats, chronic infusion; type: in vivo; conditions: normal rats chronically infused for 7 days
Method: (§2) Normal rats were chronically infused with Compound 7 for 7 days. Liver triglycerides were analyzed following lipid extraction by the Bligh Dyer method (Bligh E G and Dyer W J, A rapid method of total lipid extraction and purification. Can J Med. Sci. 1959 (August); 37(8):911-7, incorporated herein by reference). Total triglycerides were analyzed in the liver extracts by an enzymatic assay (Thermo Electron Corporation). Total lipid was normalized to initial liver weight and triglyceride content was normalized to liver weight. […] There was a 4% reduction in liver triglycerides for this group and the results were not statistically significant.

[4] = test system: liver triglycerides; test: Hepatic triglyceride content and steatosis in ZDF rats, oral; type: in vivo; conditions: orally 28 days
Method: as §2
In other experiments, Compound 7 was orally administered to ZDF rats for 28 days. Liver triglycerides were analyzed as described above. Total liver triglycerides were reduced in the treated animals 42% in the 2.5 mg/kg/d group. […] The hepatic steatosis is a well known and described phenomenon for the ZDF rat, and therefore not attributable to vehicle treatment.

[5] = test system: thyroid stimulating hormone (TSH); test: Circulating TSH in rats (cholesterol-fed, ZDF); type: in vivo; conditions: ZDF rats, 50 mg/kg/d for 28 days
Method: as §1
(§3) Another concern with synthetic thyromimetics is the suppression of the endogenous thyroid axis. Thyroid homeostasis is maintained by the action of thyroid releasing hormone (TRH) and thyroid stimulating hormone (TSH). […] Although this particular side effect has been noted, it has typically been treated with less concern than the cardiac safety issues. […] Therefore previous investigators have measured TSH levels when testing synthetic thyromimetics and have used a 30% decrease of TSH as the denominator in their therapeutic index calculations. […] Therefore, both compounds suppress TSH as doses lower than that required to decrease circulating cholesterol. […] However, 0.2 mg/kg/d of Compound 18 in 28 day treated ZDF rats, decreased TSH levels greater than 90%.

[6] = test system: thyroid stimulating hormone (TSH); test: Circulating TSH in mice; type: in vivo; conditions: 10 mg/kg/d for 77 days
Source text: as §3

Cc1cc(OCP(=O)(O)O)cc(C)c1Cc1ccc(O)c(C(C)C)c1 [Compound 7, [3,5-dimethyl-4-(4′-hydroxy-3′-iso-propylbenzyl)phenoxy]methylphosphonic acid]
Ki [1]: 3.3 nM
Liver GPDH [2]: 399% of control
reduction in liver triglycerides [3]: 64%
microvesicular steatosis, histologic analysis of liver sections [4]: dose dependent reduction in the microvesicular steatosis
TSH versus vehicle [5]: no statistically significant difference from vehicle
decrease in TSH [6]: no decrease in TSH was observed
